Measured values from patent US20260000624A1, “IONIZABLE LIPID CONTAINING BIODEGRADABLE DISULFIDE BOND AND LIPID NANOPARTICLES COMPRISING SAME” (ST PHARM CO., LTD., priority 2022, published 2026).

Legend:
[1] = tested on: HeLa cells (HeLa-Luc) expressing luciferase; assay: Luc siRNA delivery, luminescence intensity in luciferase-expressing HeLa cells; type: cell-based; conditions: Luc siRNA LNP 5 nM/well, 24 hours, FIG. 3
Protocol: The test was conducted by delivering siRNA molecules, which inhibit the expression of luciferase enzyme, into engineered HeLa cells (HeLa-Luc) expressing luciferase using each lipid nanoparticle synthesized with various amine headgroups (Compound 1 to Compound 5, Compound 11, and Compound 12). The expression of the gene was confirmed by measuring the luminescence intensity.
Specifically, lipid nanoparticles encapsulated with Luc siRNAs (SEQ ID NOs: 4 and 5) at a concentration of 5 nM/well (based on siRNA concentration) were treated into the Hella cell line (Nexel, Korea) seeded in 96-well plate at […]. After 24 hours, the cells were treated with 100 μl/well of Bright-Glo™ luciferase assay solution (promega, USA) and left at room temperature for 10 minutes, and then the luminescence intensity of the lysed cells was measured using an Infinite M200 plate reader (Tecan, USA) (FIG. 3).

hepatocytes (HeLa) = assay: GFP mRNA delivery, fluorescence intensity of lysed cells; type: cell-based; conditions: GFP mRNA LNP 0.1 μg/well, 24 hours, FIG. 4
Protocol: The test was conducted by delivering GFP mRNA molecules into hepatocytes (HeLa) using each lipid nanoparticle synthesized with various amine headgroups (Compound 1 to Compound 5, Compound 11, and Compound 12). The expression of the gene was confirmed by measuring the […] intensity.
Specifically, lipid nanoparticles encapsulated with 100 ng GFP mRNA (SEQ ID NO: 6) at a concentration of 0.1 μg/well (based on mRNA concentration) were treated into the hepatocyte line (Nexel, Korea) seeded in 96-well plate at 1×10^5 cells/well. After 24 hours, the cells were treated with 100 μl/well of cell lysis buffer (Thermofischer, US) and left at room temperature for 10 minutes, and then the fluorescence intensity of the lysed cells was measured using an Infinite M200 plate reader (Tecan, USA) (FIG. 4).

C57BL/6 mice [2] = assay: Luc mRNA delivery via intravenous injection, bioluminescence by IVIS; type: in vivo; conditions: 0.1 mg/kg Luc mRNA, 3 hours, SM-102 control, FIG. 7
Protocol: To investigate the mRNA delivery of the 221-SS lipid nanoparticles, luciferase mRNA was delivered into mice, and gene expression was confirmed by bioluminescence.
Specifically, 221-SS 3 tail lipid nanoparticles encapsulated with Luc mRNA (SEQ ID NO: 1) were manufactured by the method of Example 2-3 above. The prepared lipid nanoparticles were injected intravenously into 7-week-old C57BL/6 mice at a dose of 0.1 mg/kg (based on mRNA), and 3 hours later, luciferin 0.25 mg/kg was administered intraperitoneally and bioluminescence was confirmed by IVIS (PerkinElmer, USA).
Next, in order to confirm the effect of the number of disulfide bond chains (tails), an in vivo assay using lipid nanoparticles encapsulated with 2 μg (0.1 mg/kg) of Luc mRNA (SEQ ID NO: 1) containing either 221-SS 3-tail (Compound 5) or 221-SS 4-tail (Compound 6) was performed via intravenous injection. The same experiment was also performed using lipid nanoparticles manufactured from a 1:1 mixture of 221-SS 3 chain and 221-SS 4 chain, wherein SM-102, FDA-approved ionizable lipid, was used as a control group.
Specifically, the respective lipid nanoparticles were injected intravenously into 7-week-old C57BL/6 mice at a dose of 0.1 mg/kg (based on mRNA), and 3 hours later, luciferin 0.25 mg/kg was administered intraperitoneally and bioluminescence was confirmed by IVIS (PerkinElmer, USA).

C57BL/6 mice [3] = assay: Luc mRNA delivery via intramuscular injection, bioluminescence by IVIS; type: in vivo; conditions: 0.1 mg/kg Luc mRNA, 3 hours, SM-102 control, FIG. 9
Protocol: Luc mRNA (SEQ ID NO: 1) was delivered to mice by intramuscular injection, and gene expression was confirmed by bioluminescence.
Specifically, lipid nanoparticles (221-SS 3 tail, 221-SS 4 tail alone and mixed) containing Luc mRNA were manufactured, as described above, followed by intramuscular injection into C57BL/6 mice at a concentration of 0.1 mg/kg (based on mRNA). After 3 hours, luciferin 0.25 mg/kg was administered intraperitoneally and bioluminescence was confirmed by IVIS (PerkinElmer, USA).

SMILES	luminescence intensity (Luc siRNA delivery) [1]	fluorescence intensity (GFP mRNA delivery) (hepatocytes (HeLa))	bioluminescence according to number of chains (C57BL/6 mice [2])	bioluminescence according to number of chains (C57BL/6 mice [3])
CCCCCCCCCCCCSSCCN(CCSSCCCCCCCCCCCC)CCN(C)C [Compound 1]	higher efficiency	higher efficiency	–	–
CCCCCCCCCCCCSSCCNCCCN(C)CCCN(CCSSCCCCCCCCCCCC)CCSSCCCCCCCCCCCC [Compound 5]	higher efficiency	higher efficiency	better effects than the negative control	superior to the negative control
CCCCCCCCCCCCSSCCN(CCCN(C)CCCN(CCSSCCCCCCCCCCCC)CCSSCCCCCCCCCCCC)CCSSCCCCCCCCCCCC [Compound 6]	–	–	better effects than the negative control	superior to the negative control
